Consider two compounds from patent publication US20260256799A1, “INHIBITORS FOR TREATING SOLID TUMOURS” (UNIVERSITY OF SOUTHAMPTON, priority 2023, published 2026).

For assay [1], the system named is ATM. Briefly: TGF-β1-dependent ATM activation in fibroblasts (Western blotting). Format: cell-based, human. As for the experimental part:
Human NSCLC cell line H441, HNSCC SCC25, murine cancer cell line TC-1 (lung), MC38 (colon) and human fetal foreskin fibroblasts HFFF2 were purchased from European Collection of Cell Cultures (Public Health England) or ATCC; HNSCC 5PT [32] were provided by l. Mackenzie (Queen Mary University of London, UK). HEK-293T cells and IMR90 lung fibroblasts were provided by Jesus Gil (Imperial College, London, UK). SCC25 were grown in Ham's F12:DMEM (1:1 ratio) medium with 10% FBS (Calbiochem) and 292 μg/ml L-Glutamine. 5PT were cultured in keratinocyte growth medium. HEK-293T, H441, MC38, HFFF2, IMR90 and primary fibroblasts were grown in DMEM supplemented with 10% FBS and 292 μg/ml L-Glutamine. Primary fibroblasts were isolated as previously used at early passage (p1-10). C57BL/6 murine normal lung and colon fibroblasts (MLF and MCF respectively) were grown at 3% oxygen. TC-1 were cultured in RPMI supplemented with 10% FBS and 292 μg/ml L-Glutamine. All cell cultures were routinely tested for mycoplasma contamination. All cells were cultured using standard cell culture plates/flasks (Corning). HFFF2 or IMR90 cells were transfected with 25 μM On-Target pool siRNA (Thermo Scientific/Dharmacon) using Oligofectamine reagent (Life Technologies) as described. Stable knockdown was performed using retro/lentiviral mediated transduction of shRNA plasmids, as previously described followed by cell selection using 1 μg/ml puromycin for 5-7 days. NOX4-inducible HEK-293 cells (kindly provided by Vincent Jaquet) were treated with 1 μg/ml doxycycline. […]
(§1) Cells were lysed in ice-cold RIPA buffer [1% NP40, 150 mM NaCl, 25 mM Tris-HCl pH 7.5, 0.1% SDS, 1% Na-Deoxycolate, 1 mM EGTA, 1 mM EDTA, 1 mM Na-orthovanadate, 10 mM Na-fluoride, 2.5 mM Na-pyrophosphate, 1 mM p glycerophosphate+freshly added 1 mM PMSF, 20 mM N-Ethylmaleimide (NEM), 10 ng/ml Microcystin-LR, 0.12 μM Okadaic acid and phosphatase and protease inhibitor cocktails; all from Sigma]. Protein extracts were then centrifuged and supernatants quantified using Dc-Bio-Rad protein assay kit (Bio-Rad laboratories) as previously. […]

A further assay concerns HFFF2. Put plainly: ROS assay (DCFH-DA fluorescence). Format: cell-based, human. Particulars: GKT137831 40 μM, HFFF2 treated 48 hours with TGF-β1. As for the experimental part:
HFFF2s were plated in 24-well plates (1×10^3 or 5×10^3 cells/well) and treated with TGF-β1 the following day (and then every 3 days). Senescence was quantified at day 5 and 12 from TGF-β1 treatment determining the percentage of SA-β-Gal-positive cells (Sigma) of the total number of cells counterstained with Dapi (Sigma) as previously described. At least 200 cells/well in at least three independent experiments were counted per sample using a CKX41 Olympus fluorescent microscope. Cells were less than 50% confluent at the end of the experiment to avoid SA-β-Gal-false positive cells due to cell contact. ROS assay was performed as previously.

The subject of assay [2] is ATM. Briefly: ATM activation and dimerization in CAF nuclear extracts (Western blotting). Format: cell-based, human. Particulars: GKT137831 daily for 72 hours. As for the experimental part: Human NSCLC cell line H441, HNSCC SCC25, murine cancer cell line TC-1 (lung), MC38 (colon) and human fetal foreskin fibroblasts HFFF2 were purchased from European Collection of Cell Cultures (Public Health England) or ATCC; HNSCC 5PT [32] were provided by l. Mackenzie (Queen Mary University of London, UK). HEK-293T cells and IMR90 lung fibroblasts were provided by Jesus Gil (Imperial College, London, UK). SCC25 were grown in Ham's F12:DMEM (1:1 ratio) medium with 10% FBS (Calbiochem) and 292 μg/ml L-Glutamine. 5PT were cultured in keratinocyte growth medium. HEK-293T, H441, MC38, HFFF2, IMR90 and primary fibroblasts were grown in DMEM supplemented with 10% FBS and 292 μg/ml L-Glutamine. Primary fibroblasts were isolated as previously used at early passage (p1-10). […]
as §1
Background: A western blot detects proteins with antibodies after separation by electrophoresis.

The next assay concerns the target T1, NOX4 (Homo sapiens, UniProt Q9NPH5).
T1 sequence (Q9NPH5 1-578): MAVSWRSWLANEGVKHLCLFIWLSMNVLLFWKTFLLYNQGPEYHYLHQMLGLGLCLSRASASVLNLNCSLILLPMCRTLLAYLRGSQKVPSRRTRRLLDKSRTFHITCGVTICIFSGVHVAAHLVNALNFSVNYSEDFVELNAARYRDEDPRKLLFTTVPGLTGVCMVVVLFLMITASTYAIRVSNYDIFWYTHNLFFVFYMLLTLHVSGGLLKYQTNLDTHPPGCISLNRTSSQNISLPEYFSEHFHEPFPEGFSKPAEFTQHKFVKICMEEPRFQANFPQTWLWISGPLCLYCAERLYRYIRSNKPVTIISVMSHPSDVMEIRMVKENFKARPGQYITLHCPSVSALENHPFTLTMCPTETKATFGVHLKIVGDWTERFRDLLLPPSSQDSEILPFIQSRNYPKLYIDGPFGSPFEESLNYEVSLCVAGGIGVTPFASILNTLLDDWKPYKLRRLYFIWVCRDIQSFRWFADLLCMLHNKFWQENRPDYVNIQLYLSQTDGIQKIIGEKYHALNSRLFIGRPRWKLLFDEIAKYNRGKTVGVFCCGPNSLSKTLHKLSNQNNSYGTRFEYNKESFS
T1 sequence (P13498 1-195 partner): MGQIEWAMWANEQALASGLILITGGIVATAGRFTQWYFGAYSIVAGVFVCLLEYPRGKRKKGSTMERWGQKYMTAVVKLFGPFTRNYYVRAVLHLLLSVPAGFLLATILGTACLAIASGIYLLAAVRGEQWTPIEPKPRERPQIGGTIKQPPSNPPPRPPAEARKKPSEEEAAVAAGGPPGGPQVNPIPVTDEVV
As to conditions: cited from earlier work.

Another assay relates to HFFF2 fibroblasts. Briefly: TGF-β1-induced myofibroblast differentiation of fibroblasts (Western blotting, immunofluorescence, Q-RT-PCR, collagen gel contraction). In kind it is cell-based, human. The protocol:
Human NSCLC cell line H441, HNSCC SCC25, murine cancer cell line TC-1 (lung), MC38 (colon) and human fetal foreskin fibroblasts HFFF2 were purchased from European Collection of Cell Cultures (Public Health England) or ATCC; HNSCC 5PT [32] were provided by l. Mackenzie (Queen Mary University of London, UK). HEK-293T cells and IMR90 lung fibroblasts were provided by Jesus Gil (Imperial College, London, UK). SCC25 were grown in Ham's F12:DMEM (1:1 ratio) medium with 10% FBS (Calbiochem) and 292 μg/ml L-Glutamine. 5PT were cultured in keratinocyte growth medium. HEK-293T, H441, MC38, HFFF2, IMR90 and primary fibroblasts were grown in DMEM supplemented with 10% FBS and 292 μg/ml L-Glutamine. Primary fibroblasts were isolated as previously used at early passage (p1-10). C57BL/6 murine normal lung and colon fibroblasts (MLF and MCF respectively) were grown at 3% oxygen. TC-1 were cultured in RPMI supplemented with 10% FBS and 292 μg/ml L-Glutamine. All cell cultures were routinely tested for mycoplasma contamination. All cells were cultured using standard cell culture plates/flasks (Corning). HFFF2 or IMR90 cells were transfected with 25 μM On-Target pool siRNA (Thermo Scientific/Dharmacon) using Oligofectamine reagent (Life Technologies) as described. Stable knockdown was performed using retro/lentiviral mediated transduction of shRNA plasmids, as previously described followed by cell selection using 1 μg/ml puromycin for 5-7 days. NOX4-inducible HEK-293 cells (kindly provided by Vincent Jaquet) were treated with 1 μg/ml doxycycline. Wild type and mutant (C2991L) ATM over-expression was carried out transfecting HFFF2 with Viafect (Promega) according to manufacturer's instructions and selected for 10 days with 4 mg/ml G418. p-Retrosuper-shATM (ATM #1:912) and pCDNA3.1-Flag-mut-ATM (C2991L; pTP1625 clone) were kindly provided by Yosef Shiloh and Tanya Paull respectively. pLKO.1 murine shATM (TRCN0000012643) and pCDNA3.1-Flag-wt-ATM (31985) were purchased from Sigma and Addgene respectively. 2 ng/ml TGF-3 (TGF-β1; R&D Systems; for 3 days) was used to induce myofibroblast differentiation. 10 ng/ml IL-1pR (R&D Systems) for 72 hours was used to induce iCAF differentiation. […] All the inhibitors were resuspended in DMSO. To trigger DDR activation and/or cell stress HFFF2 were either irradiated with 2-100Gy using 350Kv X-Ray Irradiation System (Faxitron), or treated with 100 ng/ml Neocarzinostatin for 2 hours (NCS; Sigma), with 2-10 mM H2O2(Fisher Scientific) or with 5 μg/ml Cisplatin (Sandoz) for 30 minutes.
5×10^3 HFFF2 were plated on permanox chamber slides (Thermo Scientific) and treated as described in the figure legends. Immunostaining was performed as previously. DAPI was used as nuclear counterstain and coverslips were mounted using fluorescent mounting solution (Dako). Images were taken using an Olympus IX81 fluorescence microscope and Xcellence program. DNA Damage foci were quantified from at least 8 non-overlapping FoV with ~300 cells in total per condition. Kruskall-Wallis statistical test was used to indicate the presence of a different distribution per time points in each group of foci. For collagen 1A1 deposition, 5×10^3 HFFF2 or MLF were seeded into chamber slides and treated with TGF-β1±inhibitors for a week (treated day 1 & day 4). Decellularisation was performed using 0.25M NH4OH in 50 mM Tris at 37° C. for 30 minutes and slides fixed with ice-cold 100% methanol at −20° C. followed by a blocking step. The remainderwas performed as previously described. SMA and Collagen 1A1 quantification was performed using Fiji. High resolution imaging of mouse tumours was carried out using an Axioscan.Z1 scanner (Zeiss).

Setting [3] is: GKT137831 40 μM, HFFF2, TGF-β1 24 hours.
[4] abbreviates: CCT241533 1.5 μM + TGF-β1 72 hours, HFFF2.
[5] abbreviates: CCT241533 1.5 μM + TGF-β1, HFFF2.

Take `CN(C)c1cccc(-c2c3c(=O)n(-c4ccccc4Cl)[nH]c3cc(=O)n2C)c1` [GKT137831]: in the assay with ATM [1] (setting [3]), the “ATM downstream kinase activity” value is reported as “inhibited” and the ATM phosphorylation entry is “inhibited”. In the assay on ATM [1] (GKT137831, HFFF2, TGF-β1 48 hours), the “DNA damage monitored by pH2AX protein expression” value is recorded as “decreased”. Further, in the assay on HFFF2, the ROS production entry is “suppressed”. The ATM dimerization entry with ATM [2] (non-reducing conditions) is listed as “inhibited”. For the same compound, the ATM activation entry in the assay with ATM [2] (two HNSCC CAF and one NSCLC CAF) is “inhibited”. For the same compound, on NOX4, the myoCAF differentiation result is “suppresses” and the myoCAF-mediated immunotherapy resistance result is reported as “overcomes”.
Turning to `COc1cc2nc(-c3cc(F)ccc3O)nc(N[C@@H]3CNC[C@H]3C(C)(C)O)c2cc1OC` [CCT241533], in the assay on HFFF2 fibroblasts (setting [4]), the “TGF-β1-dependent FnEDA expression” value is “suppresses” and the “TGF-β1-dependent SMA expression” value is reported as “suppresses”. Further, in the assay with HFFF2 fibroblasts (setting [5]), the “SMA-positive stress fiber formation” value is reported as “suppresses” and the collagen deposition entry is given as “suppresses”.
